In patent US9920092B1, “Composition having anti-oxidant, anti-aging, and autophagy activities and uses thereof” (Incospharm Corporation, priority 2017, dated 2018):

Columns and labels:
[1] = ABTS radical scavenging assay (in-vitro anti-oxidant activity); assay type: biochemical; details: absorbance at OD734 after 30 minutes; FIG. 3
Method: In order to measure in-vitro anti-oxidant activity of the compound represented by Structural Formula according to the present invention, ABTS radical scavenging assay was performed. When 2,2′-azino-bis-(3-ethylbenzothiazoline-6-sulfonic acid (ABTS) reacts with potassium persulfate, ABTS^+, which is an active cation, is formed, but in the case in which an anti-oxidant material is present in a test sample, ABTS^+ is removed by anti-oxidant activity, a greenish blue color, which is a peculiar color of ABTS^+, is decolorized, which may be measured as an absorbance value, thereby making it possible to evaluate the anti-oxidant activity.
As a specific experimental method, after mixing ABTS diammonium salt (7 mM) and potassium persulfate (2.45 mM) with each other in distilled water in order to activate stabilized ABTS diammonium salt, a reaction was carried out at room temperature for 16 hours, thereby forming an ABTS radical. After diluting the resultant in a phosphate buffer solution (PBS) to prepare a reaction solution so that an OD734 value was about 1.5, the reaction solution was mixed with vitamin C (Vit C), pyrrolidone carboxylic acid (PCA), or the compound represented by Structural Formula 1 disclosed in the present invention to induce a reaction. After 30 minutes, an amount of the remaining activated ABTS radical was analyzed by measuring absorbance at OD734.

[2] = system: human epidermal keratinocyte cells; experiment: LC3 puncta assay (confocal microscope); assay type: cell-based; details: 100 uM, 48 hours, anti-LC3 immunostaining; FIG. 7
Method: As a specific experimental method, after 200 ul of poly-L-lysine (sigma) was put into each well of a 15 ul slide glass (Ibidi) and a reaction was carried out at room temperature for 30 minutes, followed by coating, human epidermal keratinocyte cells (Gibco BRL) were cultured and treated with respective test materials (rapamycin, compound represented by Structural Formula 1, and vitamin C) at a concentration of 100 uM. After the culturing for 48 hours was terminated, a medium was removed, and the cultured cells were fixed and blocked using formalin. Thereafter, the cells were labeled with anti-LC3 (Abfrontier) and anti-rabbit IgG-FITC (sigma), nucleus was stained with 4′,6′-diamidine-2′-phenylindole dihydrochloride (DAPI), and then, whether or not a puncta was formed in the cells was confirmed using a confocal microscope.

[3] = system: human epidermal keratinocyte cells; experiment: Intracellular ROS by DCFH-DA dye and FACS scanning after H2O2; assay type: cell-based; details: 100 uM pre-treatment for 48 hours, 10 uM H2O2 10 minutes, FIG. 4
Method: In order to measure an intercellular anti-oxidant activity of the compound represented by Structural Formula 1 according to the present invention, an amount of intracellular reactive oxygen species (ROS) was measured using 6-carboxy-2′,7′-dichlorofluorescein diacetate (DCFH-DA) dye and fluorescence activated cell sorter (FACS) scanning.
As a specific experimental method, human epidermal keratinocyte cells (Gibco BRL) were uniformly seeded onto a 600 culture dish (3×10^5 cells/dish) and cultured in an epilife medium (Gibco BRL) containing human keratinocyte growth supplement (HKGS, Gibco BRL) at 37° C. in a 5% CO2 incubator for 24 hours. Thereafter, the test materials (H2O2, vitamin C, and the compound represented by Structural Formula 1) were each dissolved in water at a concentration of 10 mM to prepare a concentrate, the prepared concentrate was diluted so as to have a concentration of 100 uM using the medium and put into a culture dish to treat the cells. Then, culturing was performed for 48 hours, and after the culturing was terminated, the medium was removed and the resultant was washed, thereby preparing a subsequent experiment. Next, 10 uM hydrogen peroxide was added thereto, the culturing was performed for 10 minutes, the resultant was washed again. […]

[4] = system: human epidermal keratinocyte cells; experiment: Cell protection effect against H2O2 oxidative stress (MTT); assay type: cell-based; details: then 1 mM H2O2 4 hours
Method: Through the results in Examples 2 to 6, it was confirmed that expression of the anti-oxidant proteins and the autophagy-related proteins in cells was increased by the compound represented by Structural Formula 1, and thus, autophagy in the cells was activated. Therefore, in order to confirm whether or not activation of autophagy as described above may protect cells from cytotoxicity caused by ROS, follow-up research into a cell protection effect was conducted.
As a specific experiment method, after treating human epidermal keratinocyte cells (Gibco BRL) with respective test materials (vitamin C and the compound represented by Structural Formula 1) at 0.1 mM or 1 mM, respectively, while culturing the cells in a 96-well culture dish, the cells were cultured for 24 hours or 48 hours, the resultant was washed, and 1 mM H2O2 was added thereto, and additional culturing was performed for 4 hours. Thereafter, each of the wells was washed, 10 ul of 3-(4,5-dimethylthiazol-2-yl)-2,5-diphenyltetrazolium bromide (MTT) dissolved in PBS (5 mg/ml) was added to each of the wells, and a reaction was carried out at 37° C. under a 5% CO2 condition. Thereafter, a supernatant was carefully removed, MTT formazan precipitated in the cells was dissolved in 100 ul of DMSO, and then absorbance at OD570 was measured using an enzyme-linked immunosorbent assay (ELISA) reader.

[5] = system: human epidermal keratinocyte cells; experiment: Western blot of anti-oxidant and autophagy-related protein expression; assay type: cell-based; details: 50, 100, or 200 um, 48 hours
Method: (§1) In order to find a cause of increasing an intracellular anti-oxidant activity by treatment with the compound represented by Structural Formula 1, cDNA microarray was performed, thereby confirming that transcription of several kinds of important genes associated with anti-oxidation and autophagy was increased. Proteins for the selected genes were quantified by western blot.
As a specific experimental method, after treating human epidermal keratinocyte cells (Gibco BRL) with the compound represented by Structural Formula 1 at a concentration of 50, 100, or 200 um while culturing the cells in a 600 culture dish, culturing was performed for 48 hours. After the culturing was terminated, a medium was removed, a RIPA lysis buffer containing protease inhibitor cocktail (2 ug/ml aprotinin, 5 ug/ml leupeptin, 1 ug/ml pepstatin A, 1 mM PMSF, 5 mM EDTA and 1 mM EGTA) was added thereto, thereby obtaining an entire cell homogenate. Thereafter, total proteins were quantified through microBCA assay (SMART micro BCA protein assay kit, Intron biotechnology), the cell homogenate (10 to 20 ug) was loaded on a SDS-PAGE gel, and respective proteins were isolated by electrophoresis and moved to a nitrocellulose membrane. […]

[6] = system: genes associated with anti-oxidation and autophagy; experiment: cDNA microarray of genes associated with anti-oxidation and autophagy; assay type: cell-based
Method: as §1

[7] = system: human dermal fibroblast cells; experiment: Electron microscopy assay of autophagy structures; assay type: cell-based; details: 50 uM, 24 hours; FIGS. 8 and 9
Method: As a specific experimental method, after treating human dermal fibroblast cells with the compound represented by Structural Formula 1 at a concentration of 50 uM while culturing the cells, the culturing was performed for 24 hours. After the culturing was terminated, the cells were fixed, a paraffin block was prepared, and then, cell images were analyzed using an electron microscope.
An autophagy pathway starts from formation of an isolated precursor membrane having a cup shape, referred to as phagophore. The phagophore may form a double membrane […] known as autophagosome through initiation, nucleation, elongation, and closure processes. The autophagosome carries condensed proteins, organelles or pathogenic bacteria in damaged cells to lysosome in a captured state, and fused with lysosome to form autophagolysosome. The autophagolysosome decomposes the captured constituents in an acidic environment mediated by acid hydrolase.

SMILES	scavenging activity on the activated ABTS radical [1]	formation of LC3 puncta in the cells [2]	amount of intracellular ROS formed by treatment with H2O2 [3]	cell viability ([4]; 1 mM, pre-treatment for 24 hours, FIG. 10)	cell viability ([4]; 1 mM, pre-treatment for 48 hours, FIG. 11)	viability at 100 µM ([4]; Homo sapiens, Keratinocyte, 0.1 mM, pre-treatment for 24 hours, FIG. 10) [%]	expression of proteins having high anti-oxidant activities (Prx2 monomer, Prx3, HSP70 based Grp75, HSP90B1, EPHX2, stanniocalcin2) ([5]; FIG. 5)	expression of proteins important in autophagy and detoxification activities (BiP, FoxO1, sirtuin5) ([5]; FIG. 6)	transcription of genes associated with anti-oxidation and autophagy [6]	number of autophagolysosome [7]	number of autophagosome (increase by treatment) [7] [times]	number of phagophore [7]	cell viability ([4]; 0.1 mM or 1 mM, pre-treatment for 24 hours, FIG. 10)	cell viability ([4]; 0.1 mM or 1 mM, pre-treatment for 48 hours, FIG. 11)
O=C1O[C@H]([C@@H](O)CO)C(O)=C1O [vitamin C, reference compound]	concentration-dependent scavenging activity	not increased	not decreased	rather deteriorated	rather deteriorated	~95								
O=C(O)CN(CCCC[C@H](NC(=O)[C@H](CCCCN(CC(=O)O)CC(=O)O)N(CC(=O)O)CC(=O)O)C(=O)O)CC(=O)O [2-[2,6-bis-(bis-carboxymethyl-amino)-hexanoyl-amino]-6-(bis-carboxymethyl-amino)-hexanoic acid]	concentration-dependent scavenging activity	a large amount of a LC puncta	almost disappeared				increased	increased	increased	significantly increased	≥ 2	significantly increased	improved	improved
